Values joined by “and” are separate entries in the source; they are usually repeats but may differ in a detail not shown here. Equal entries are not always repeated. Active and inactive are the calls of the source. How the source made its calls: active means viability on the fitted dose curve at most 10% of control; inactive means the rest.
Tested on: KRAS patient-derived spheroids with HUVEC/MSC, viability
Assay: Anticancer human tumor 941728-121-R-J1-PDC patient-derived lung adenocarcinoma cell line growth inhibition [KRAS2]
Conditions: for viability, T/C: stronger effect = lower value
How it was run: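 Combination screen of spheroid viability in tumor-cell co-cultures with endothelial (HUVEC) and mesenchymal stem cell stroma. Each agent was tested in half-log dilutions, topping at clinical Cmax or at 10 microM without a known Cmax.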

[1] = curve of first compound, second compound 0.1 µM
[2] = curve of first compound, second compound 0.316 µM
[3] = curve of first compound, second compound 1 µM
[4] = curve of first compound, second compound 3.16 µM
[5] = curve of first compound, second compound 10 µM
[6] = second compound 0.1 µM, first compound 0.0316 µM
[7] = second compound 0.1 µM, first compound 0.1 µM
[8] = second compound 0.1 µM, first compound 0.316 µM
[9] = second compound 0.1 µM, first compound 1 µM
[10] = second compound 0.1 µM, first compound 3.16 µM
[11] = second compound 0.1 µM, first compound 10 µM
[12] = second compound 0.316 µM, first compound 0.0316 µM
[13] = second compound 0.316 µM, first compound 0.1 µM
[14] = second compound 0.316 µM, first compound 0.316 µM
[15] = second compound 0.316 µM, first compound 1 µM
[16] = second compound 0.316 µM, first compound 3.16 µM
[17] = second compound 0.316 µM, first compound 10 µM
[18] = second compound 1 µM, first compound 0.0316 µM
[19] = second compound 1 µM, first compound 0.1 µM
[20] = second compound 1 µM, first compound 0.316 µM
[21] = second compound 1 µM, first compound 1 µM
[22] = second compound 1 µM, first compound 3.16 µM
[23] = second compound 1 µM, first compound 10 µM
[24] = second compound 3.16 µM, first compound 0.0316 µM
[25] = second compound 3.16 µM, first compound 0.1 µM
[26] = second compound 3.16 µM, first compound 0.316 µM
[27] = second compound 3.16 µM, first compound 1 µM
[28] = second compound 3.16 µM, first compound 3.16 µM
[29] = second compound 3.16 µM, first compound 10 µM
[30] = second compound 10 µM, first compound 0.0316 µM
[31] = second compound 10 µM, first compound 0.1 µM
[32] = second compound 10 µM, first compound 0.316 µM
[33] = second compound 10 µM, first compound 1 µM
[34] = second compound 10 µM, first compound 3.16 µM
[35] = second compound 10 µM, first compound 10 µM
[36] = second compound 0.1 µM, first compound 0.01 µM
[37] = second compound 0.316 µM, first compound 0.01 µM
[38] = second compound 1 µM, first compound 0.01 µM
[39] = second compound 3.16 µM, first compound 0.01 µM
[40] = second compound 10 µM, first compound 0.01 µM
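Wherever IC50 is given: spheroids exposed to agents for seven days before readout.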
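Wherever viability, T/C is given: spheroids exposed to agents for seven days before readout.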

O=C(c1cc(Cc2n[nH]c(=O)c3ccccc23)ccc1F)N1CCN(C(=O)C2CC2)CC1 + COc1cc2nc(C)nc(NC(C)c3cc(N)cc(C(F)(F)F)c3)c2cc1OC1CCOC1
IC50 [1]: > 10000 nM | IC50 [2]: > 10000 nM | IC50 [3]: > 10000 nM | IC50 [4]: < 31.6 nM | IC50 [5]: 46.7 nM | viability, T/C [6]: 60% | viability, T/C [7]: 105% | viability, T/C [8]: 59.7% | viability, T/C [9]: 93.4% | viability, T/C [10]: 120% | viability, T/C [11]: 79.2% | viability, T/C [12]: 54.1% | viability, T/C [13]: 57.4% | viability, T/C [14]: 55.9% | viability, T/C [15]: 56.9% | viability, T/C [16]: 64.4% | viability, T/C [17]: 66.2% | viability, T/C [18]: 103% | viability, T/C [19]: 114% | viability, T/C [20]: 126% | viability, T/C [21]: 124% | viability, T/C [22]: 103% | viability, T/C [23]: 100% | viability, T/C [24]: 47.7% | viability, T/C [25]: 50.5% | viability, T/C [26]: 49% | viability, T/C [27]: 59.8% | viability, T/C [28]: 56.9% | viability, T/C [29]: 54.9% | viability, T/C [30]: 60.5% | viability, T/C [31]: 29.5% | viability, T/C [32]: 26.1% | viability, T/C [33]: 33.6% | viability, T/C [34]: 20.9% | viability, T/C [35]: 27.6%

Cn1nccc1Nc1nccc(-c2cc3c(s2)C(C)(C)N(CCN2CCOCC2)C3=O)n1 + COc1cc2nc(C)nc(NC(C)c3cc(N)cc(C(F)(F)F)c3)c2cc1OC1CCOC1
IC50 [1]: 116 nM | IC50 [2]: 145 nM | IC50 [3]: 58.6 nM | IC50 [4]: < 31.6 nM | IC50 [5]: < 31.6 nM | viability, T/C [6]: 60.1% | viability, T/C [7]: 52.7% | viability, T/C [8]: 43.7% | viability, T/C [9]: 39.5% | viability, T/C [10]: 39.2% | viability, T/C [11]: 37.8% | viability, T/C [12]: 64.1% | viability, T/C [13]: 55.3% | viability, T/C [14]: 38.9% | viability, T/C [15]: 38.6% | viability, T/C [16]: 39.1% | viability, T/C [17]: 33.9% | viability, T/C [18]: 55.9% | viability, T/C [19]: 44.3% | viability, T/C [20]: 41.1% | viability, T/C [21]: 37.5% | viability, T/C [22]: 38.4% | viability, T/C [23]: 35.1% | viability, T/C [24]: 46.5% | viability, T/C [25]: 46.7% | viability, T/C [26]: 40.5% | viability, T/C [27]: 40.6% | viability, T/C [28]: 36.3% | viability, T/C [29]: 31.5% | viability, T/C [30]: 30.7% | viability, T/C [31]: 30.2% | viability, T/C [32]: 22.4% | viability, T/C [33]: 20.4% | viability, T/C [34]: 15% | viability, T/C [35]: 11.2%

CC(=O)OC12COC1CC(O)C1(C)C(=O)C(O)C3=C(C)C(OC(=O)C(O)C(NC(=O)OC(C)(C)C)c4ccccc4)CC(O)(C(OC(=O)c4ccccc4)C21)C3(C)C (centres undefined) + C=CC(=O)N1CCN(c2nc(=O)n(-c3c(C)ccnc3C(C)C)c3nc(-c4c(O)cccc4F)c(F)cc23)C(C)C1
IC50 [1]: < 10 nM | IC50 [2]: < 10 nM | IC50 [3]: < 10 nM | IC50 [4]: < 10 nM | IC50 [5]: < 10 nM | viability, T/C [36]: 19.7% | viability, T/C [6]: 17.1% | viability, T/C [7]: 19.8% | viability, T/C [8]: 18.1% | viability, T/C [9]: 21.7% | viability, T/C [10]: 20.2% | viability, T/C [37]: 18.4% | viability, T/C [12]: 17.4% | viability, T/C [13]: 17.4% | viability, T/C [14]: 20.2% | viability, T/C [15]: 20.4% | viability, T/C [16]: 18.3% | viability, T/C [38]: 16.6% | viability, T/C [18]: 19.2% | viability, T/C [19]: 16.4% | viability, T/C [20]: 19.1% | viability, T/C [21]: 20.6% | viability, T/C [22]: 20.1% | viability, T/C [39]: 16.4% | viability, T/C [24]: 21.9% | viability, T/C [25]: 20.9% | viability, T/C [26]: 19.5% | viability, T/C [27]: 23.8% | viability, T/C [28]: 19% | viability, T/C [40]: 25.9% | viability, T/C [30]: 24% | viability, T/C [31]: 29.5% | viability, T/C [32]: 26.2% | viability, T/C [33]: 28.8% | viability, T/C [34]: 25.5%

CC(C)n1nc(-c2ccc3oc(N)nc3c2)c2c(N)ncnc21 + CC1OCC2(CCN(c3cnc(Sc4ccnc(N)c4Cl)c(N)n3)CC2)C1N
IC50 [1]: < 0.316 nM | IC50 [2]: < 0.316 nM | IC50 [3]: < 0.316 nM | IC50 [4]: < 0.316 nM | IC50 [5]: < 0.316 nM | viability, T/C (second compound 0.1 µM, first compound 0.000316 µM): 40.7% | viability, T/C (second compound 0.1 µM, first compound 0.001 µM): 30.6% | viability, T/C (second compound 0.1 µM, first compound 0.00316 µM): 17.2% | viability, T/C [36]: 12.1% | viability, T/C [6]: 8.84% | viability, T/C [7]: 6.47% | viability, T/C (second compound 0.316 µM, first compound 0.000316 µM): 31% | viability, T/C (second compound 0.316 µM, first compound 0.001 µM): 24.8% | viability, T/C (second compound 0.316 µM, first compound 0.00316 µM): 16.8% | viability, T/C [37]: 11.5% | viability, T/C [12]: 9.93% | viability, T/C [13]: 5.71% | viability, T/C (second compound 1 µM, first compound 0.000316 µM): 25.2% | viability, T/C (second compound 1 µM, first compound 0.001 µM): 20.3% | viability, T/C (second compound 1 µM, first compound 0.00316 µM): 12% | viability, T/C [38]: 8.84% | viability, T/C [18]: 8.27% | viability, T/C [19]: 5.69% | viability, T/C (second compound 3.16 µM, first compound 0.000316 µM): 17.6% | viability, T/C (second compound 3.16 µM, first compound 0.001 µM): 16.4% | viability, T/C (second compound 3.16 µM, first compound 0.00316 µM): 9.88% | viability, T/C [39]: 5.58% | viability, T/C [24]: 3.72% | viability, T/C [25]: 3.13% | viability, T/C (second compound 10 µM, first compound 0.000316 µM): 11.4% | viability, T/C (second compound 10 µM, first compound 0.001 µM): 11.2% | viability, T/C (second compound 10 µM, first compound 0.00316 µM): 6.08% | viability, T/C [40]: 4.41% | viability, T/C [30]: 3.77% | viability, T/C [31]: 1.91%

COc1cc2nccc(Oc3ccc(NC(=O)C4(C(=O)Nc5ccc(F)cc5)CC4)cc3)c2cc1OC
viability, T/C (compound 0.0316 µM): 97.7% [middle of 5 runs] | viability, T/C (compound 0.316 µM): 83.8% [middle of 5 runs] | outcome (compound 10 µM): inactive | IC50 (curve of compound): > 10000 nM and 2760 nM

Reference: PubChem BioAssay AID1963862 (Molecular Pharmacology Branch, DTP, NCI, 2024)
